Measurements: publication PMC10096376, “Insecticidal and Synergistic Potential of Three Monoterpenoids against the Yellow Fever Mosquito, Aedes aegypti (Diptera: Culicidae), and the House Fly, Musca domestica (Diptera: Muscidae)” (Molecules, 2023)
Values joined by “and” are separate entries in the source; they are usually repeats but may differ in a detail not shown here. Identical values can stand only once.

Tests used:
[1] = tested on: Aedes aegypti; conditions: methomyl 6 ng/mosquito
Experimental: For Ae. aegypti, synergism assays were performed similar to the topical applications described previously, with the following modifications: 2 doses (2 µg/mosquito and 10 µg/mosquito) of each monoterpenoid were applied as synergists, similar to previous studies exploring the synergistic potential of natural products in combination with an intermediate dose-level of insecticide alone.
Mosquitoes were transferred to deli cups and kept at a controlled temperature and humidity (the same conditions as described for the topical application of insecticides and monoterpenoids alone). Again, a minimum of 3 separate rearing cohorts were used among replicates of each dose combination.
(§1) Dose responses were modeled via probit analysis, and their resulting estimates were obtained. […] A control correction option (OPTC command) was used to account for responses to the vehicle control treatments. Co-toxicity values were calculated by the method of [29]. A co-toxicity factor of >+20 signifies potentiation, <−20 antagonism, and −20 to +20 additive.

[2] = biological target: T1, acetylcholinesterase (Aedes aegypti, UniProt Q6A2E2); experiment: In vitro inhibition of acetylcholinesterase (Ellman), whole-body homogenate; assay type: biochemical; conditions: Ae. aegypti preparation, corrected for total protein; read-out: IC50 (95% CI)
T1 construct: The supernatant was used as the enzyme source; from tissue; host or cells: whole bodies of adult female Aedes aegypti, Orlando strain; Triton X-100 supernatant
Experimental: (§2) Acetylcholinesterase inhibition was conducted on homogenates of whole-body Ae. aegypti and M. domestica heads using Ellman’s method. For Ae. aegypti, 10 whole female adults were placed in 2 mL microcentrifuge screw cap tubes with 3–5.2 mm zircon/silica beads and homogenized in 500 μL of sodium phosphate buffer (100 mM, pH 7.8) using a Precellys Evolution bead beater (Bertin Corp., Rockville, MD, USA) set to two 15-s pulses of 5600 rpm. Afterward, 500 μL of Triton X-100 buffer (100 mM sodium phosphate, pH 7.8, 0.6% Triton X-100) was added to each tube (final Triton X-100 concentration: 0.3%), inverted several times to mix up the sample, and then centrifuged at 10,000× g for 4 min at 4 °C. The supernatant was used as the enzyme source. The same process was carried out with M. domestica, except three heads were processed in a 1000:1000 μL sodium phosphate buffer and Triton X-100 buffer in the same manner as just described.
Concentration responses were conducted in the wells of a 96-well, clear, flat-bottomed plate. Inhibitor solutions of methomyl or monoterpenoids were first dissolved in DMSO (dimethyl sulfoxide) and then diluted in sodium phosphate buffer (100 mM, pH 7.8, DMSO concentration of 1%). […]
Dose responses were modeled via probit analysis, and their resulting estimates were obtained. […] Co-toxicity values were calculated by the method of [29]. […]

[3] = biological target: acetylcholinesterase (Musca domestica, UniProt Q7YWJ9); experiment: In vitro inhibition of acetylcholinesterase (Ellman), head homogenate; assay type: biochemical; conditions: at 100 µM; preparation not given, follows the M. domestica values; read-out: inhibition of AChE
Experimental: as §2
Concentration responses were conducted in the wells of a 96-well, clear, flat-bottomed plate. Inhibitor solutions of methomyl or monoterpenoids were first dissolved in DMSO (dimethyl sulfoxide) and then diluted in sodium phosphate buffer (100 mM, pH 7.8, DMSO concentration of 1%). A volume of 10 μL of the inhibitor solution was added to each well, along with 90 μL of sodium phosphate buffer, and finally 10 μL of homogenate. This was incubated on a plate shaker at 400 rpm for 10 min at room temperature. The final concentrations for methomyl were 100 μM, 10 μM, 1 μM, 100 nM, 10 nM, 1 nM, and 0 nM. For the monoterpenoids, the same range was used except the top concentration was 1 mM and the bottom non-zero concentration was 10 nM. The final concentration of DMSO in all wells was 0.09%.
After the 10-min incubation, 100 μL of Ellman’s reagent prepared in sodium phosphate buffer and each corresponding inhibitor concentration were added to the wells using a multichannel pipette.
as §1

[4] = tested on: Aedes aegypti; conditions: 24 h, topical, adult females, susceptible strain
[5] = tested on: Musca domestica; conditions: topical; sufficient toxicity not observed at highest doses applied
[6] = tested on: rat; conditions: in vivo; cited from earlier work
[7] = tested on: rabbit; conditions: ref 32,33 (L-fenchone), 35,36 (Permethrin), 37 (Methomyl); cited from earlier work
[8] = cited from earlier work

T1 sequence (Q6A2E2 1-702): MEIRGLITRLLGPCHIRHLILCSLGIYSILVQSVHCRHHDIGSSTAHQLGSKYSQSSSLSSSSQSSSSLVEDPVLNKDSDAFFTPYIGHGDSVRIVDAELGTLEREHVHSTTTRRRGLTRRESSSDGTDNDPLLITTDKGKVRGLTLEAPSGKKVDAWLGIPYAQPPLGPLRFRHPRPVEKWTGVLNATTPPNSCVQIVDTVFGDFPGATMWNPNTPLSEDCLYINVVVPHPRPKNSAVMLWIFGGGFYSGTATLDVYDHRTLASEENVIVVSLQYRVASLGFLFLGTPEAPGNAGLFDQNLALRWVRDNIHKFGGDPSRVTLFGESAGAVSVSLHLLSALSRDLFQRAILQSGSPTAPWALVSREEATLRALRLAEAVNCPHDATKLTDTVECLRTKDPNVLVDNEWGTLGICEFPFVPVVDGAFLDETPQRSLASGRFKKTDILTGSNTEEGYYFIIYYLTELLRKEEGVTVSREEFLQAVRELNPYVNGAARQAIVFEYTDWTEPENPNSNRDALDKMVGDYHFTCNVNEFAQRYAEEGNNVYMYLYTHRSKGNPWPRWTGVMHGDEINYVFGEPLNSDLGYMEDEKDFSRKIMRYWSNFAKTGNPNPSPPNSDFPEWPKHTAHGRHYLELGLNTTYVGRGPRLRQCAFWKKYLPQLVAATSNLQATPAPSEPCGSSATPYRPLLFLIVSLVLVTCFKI
acetylcholinesterase (Musca domestica, UniProt Q7YWJ9), sequence (Q7YWJ9 81-660): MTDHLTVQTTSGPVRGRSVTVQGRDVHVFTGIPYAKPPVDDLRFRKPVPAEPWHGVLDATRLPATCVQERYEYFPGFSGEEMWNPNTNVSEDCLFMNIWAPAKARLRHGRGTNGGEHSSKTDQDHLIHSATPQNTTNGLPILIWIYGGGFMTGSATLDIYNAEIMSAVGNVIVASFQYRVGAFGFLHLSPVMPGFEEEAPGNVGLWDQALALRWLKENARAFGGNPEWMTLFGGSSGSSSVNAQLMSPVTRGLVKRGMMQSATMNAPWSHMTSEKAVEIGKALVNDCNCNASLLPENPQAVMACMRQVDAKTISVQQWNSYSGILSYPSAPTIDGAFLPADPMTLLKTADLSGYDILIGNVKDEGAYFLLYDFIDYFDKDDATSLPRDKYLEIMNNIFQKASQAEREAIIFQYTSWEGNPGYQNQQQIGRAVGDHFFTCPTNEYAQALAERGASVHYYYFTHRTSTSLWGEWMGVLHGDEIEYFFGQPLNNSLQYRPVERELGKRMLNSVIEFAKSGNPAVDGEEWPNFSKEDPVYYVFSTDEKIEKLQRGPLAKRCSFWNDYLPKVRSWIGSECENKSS

## CNC(=O)ON=C(C)SC [Methomyl, methomyl, reference compound]
[1]
  1-h% Mean Knockdown ± SEM, Methomyl Alone: 87.5 ± 9.5%
  24-h% Mean Mortality ± SEM, Methomyl Alone: 57.5 ± 25.3%
  48-h% Mean Mortality ± SEM, Methomyl Alone: 65 ± 21.8%
[2]
  IC50: 2.5 µM and 1.7 µM
[3]
  inhibition at 100 µM: 99.4 ± 0.1%
[4]
  LD10 (95% CI): 0.97 (0.27–1.6) a ng/mg body weight
  LD50 (95% CI): 2.7 (1.6–4.3) b ng/mg body weight
  LD90 (95% CI): 7.55 (4.7–22.5) b ng/mg body weight
[5]
  LD50: > 100 ng
[6]
  Oral LD50: 17–24 (rt) mg compound per kg body weight
[7]
  Dermal LD50: 5880 (rb) mg compound per kg body weight
[8]
  aerobic soil half-life: approximately 14 d
